Values quoted from earlier work, collected in patent US20250049023A1, “FUNGICIDAL COMPOSITIONS” (SYNGENTA CROP PROTECTION AG, priority 2021, published 2025).

System: Mycosphaerella graminicola (Septoria tritici)
Conditions: as disclosed in prior filings

## COc1ccnc(C(=O)N[C@@H](C)C(=O)O[C@@H](C)C(c2ccc(F)cc2)c2ccc(F)cc2)c1OC(C)=O [Florylpicoxamid, (1S)-2,2-bis(4-fluorophenyl)-1-methylethyl N-{[3-(acetyloxy)-4-methoxy-2-pyridyl]carbonyl}-L-alaninate]
  control of wheat leaf blotch disease (in words): particularly effective
